The values that follow come from PubChem BioAssay (NCI).

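Dose response: 5 concentrations. Exposure: 48 h. Format: 96-well plates. Endpoint: linear interpolation; highest concentration if not reached. At the GI50, growth is halved. At the TGI there is no net growth.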

Test systems include K-562 leukemia; OVCAR-8 ovarian; UO-31 renal; SF-268 CNS; NCI-H23 lung; DU-145 prostate; SW-620 colon; A549 NSCLC; SK-OV-3 ovarian.
Holding throughout (assay): NCI tumour cell line growth inhibition, 48 h

As for `COP1(=S)OCC2CCC[C@@H]2O1` (stereo partly drawn), the TGI with K-562 leukemia, in the test on OVCAR-8 ovarian, in the test with UO-31 renal, with SF-268 CNS, in the test on NCI-H23 lung and in the test with DU-145 prostate was above 100 µM in each case. Also, the TGI with SW-620 colon and in the test with A549 NSCLC was above 100 µM in each case.
On to `CC1=N/C(=C\c2ccc([N+](=O)[O-])cc2)C(=O)O1`, for which the TGI in the test on K-562 leukemia, in the test on OVCAR-8 ovarian, in the test on UO-31 renal, in the test on SF-268 CNS, in the test with NCI-H23 lung and in the test with SW-620 colon was above 100 µM each time. The compound also yielded a TGI in the test on A549 NSCLC above 100 µM.
As to `O=C1CCC2CCOc3ccc(O)c1c32` (stereo not drawn), the TGI in the test with K-562 leukemia, with OVCAR-8 ovarian, in the test with UO-31 renal, in the test with SF-268 CNS, with NCI-H23 lung and in the test with SK-OV-3 ovarian was above 100 µM each time. This compound also showed a TGI in the test on A549 NSCLC above 100 µM.
Turning to `Oc1ccccc1C=Nc1ccccc1N=Cc1ccccc1O`, the TGI with K-562 leukemia, with OVCAR-8 ovarian, in the test on SF-268 CNS, in the test with NCI-H23 lung, in the test with SW-620 colon and in the test with SK-OV-3 ovarian was above 100 µM throughout. This compound also showed a TGI in the test with A549 NSCLC above 100 µM.
Consider `COc1ccc(/C=C/C(C(=O)O)C(=O)O)cc1`, for which the TGI in the test with K-562 leukemia, in the test with OVCAR-8 ovarian, in the test on UO-31 renal, with SF-268 CNS, in the test on NCI-H23 lung and in the test on SW-620 colon was above 100 µM throughout. Moreover, the TGI in the test with SK-OV-3 ovarian and in the test with A549 NSCLC was above 100 µM each time.
As to `CCc1cccc(C(C)CC)c1NC(=O)CC1C(=O)Nc2ccccc2S1=O` (stereo not drawn), the TGI in the test with K-562 leukemia, in the test on OVCAR-8 ovarian, in the test with UO-31 renal, in the test with SF-268 CNS, with NCI-H23 lung and in the test on SW-620 colon was above 100 µM throughout. In the test on A549 NSCLC, the TGI was above 100 µM.
In the case of `C=CCNC(=S)OCCCCCCCCCC`, the TGI turned out to be 29.6 µM in the test on K-562 leukemia; 31.2 µM with OVCAR-8 ovarian; 24.8 µM in the test with UO-31 renal; 33.6 µM in the test on SF-268 CNS; 37.8 µM in the test with NCI-H23 lung; 32.7 µM in the test on SW-620 colon. The results for the TGI in the test on SK-OV-3 ovarian and with A549 NSCLC were 43.3 µM and 76.2 µM, respectively.
For the compound `O=C(/C=C/c1ccc(Cl)cc1)c1ccncc1`, the TGI with K-562 leukemia, with OVCAR-8 ovarian, in the test with UO-31 renal, in the test on SF-268 CNS, with NCI-H23 lung and in the test with SW-620 colon was above 100 µM each time. Moreover, the TGI in the test on SK-OV-3 ovarian and with A549 NSCLC was above 100 µM in each case.
For `COC(=O)C(=O)C(C#N)c1ccc(Cl)c(Cl)c1` (stereo not drawn), the TGI with K-562 leukemia, in the test on UO-31 renal, in the test with SF-268 CNS, in the test with NCI-H23 lung, in the test on SW-620 colon and with SK-OV-3 ovarian was above 100 µM in each case. For the same compound, the TGI in the test with A549 NSCLC was above 100 µM.
`COc1cccc2c(Nc3ccc(C(=O)NCCN(C)C)cc3)cc(-c3ccccc3)nc12`: the GI50 is 10.8 µM in the test on K-562 leukemia; 17.3 µM with OVCAR-8 ovarian; 13.9 µM in the test with UO-31 renal; 20.3 µM in the test on NCI-H23 lung; 16.4 µM in the test on DU-145 prostate; 14 µM in the test with SW-620 colon. Besides, the GI50 in the test on SK-OV-3 ovarian was 29.4 µM; in the test on A549 NSCLC, 16 µM. For the same compound, the TGI worked out at 31.5 µM with K-562 leukemia; 42.7 µM in the test with OVCAR-8 ovarian; 32.3 µM with UO-31 renal; 45.6 µM in the test on NCI-H23 lung; 33 µM with DU-145 prostate; 33.4 µM in the test on SW-620 colon. In addition, the TGI with SK-OV-3 ovarian turned out to be 71.2 µM; with A549 NSCLC, 33.1 µM.
With `Cc1nn(C)c(=S)n(C)c1=O`, the TGI in the test on K-562 leukemia was above 100 µM; in the test with OVCAR-8 ovarian, 27.3 µM; with UO-31 renal, 0.753 µM; in the test on SF-268 CNS, above 100 µM; in the test on NCI-H23 lung, 10.6 µM; in the test with SW-620 colon, above 100 µM. The TGI with SK-OV-3 ovarian stood at 42.8 µM; in the test on A549 NSCLC, 23.8 µM.
As to `CC1=C(c2cc(C(=O)Nc3cccc(C(F)(F)F)c3)nc(NC#N)n2)Sc2ccccc2N1`, the TGI with K-562 leukemia, with UO-31 renal, in the test on SF-268 CNS, in the test with NCI-H23 lung, in the test on SW-620 colon and in the test on SK-OV-3 ovarian was above 100 µM each time. In addition, the TGI in the test with A549 NSCLC was above 100 µM.
Regarding `NC(=S)N/N=C(\C(=O)Nc1ccc(Cl)c(Cl)c1)C1=NN(c2ccccc2)C(c2cccc([N+](=O)[O-])c2)CC1=O` (stereo not drawn), the TGI in the test on K-562 leukemia is 65.5 µM; in the test on OVCAR-8 ovarian it was above 100 µM; in the test with UO-31 renal, above 100 µM; in the test with SF-268 CNS, above 100 µM; with NCI-H23 lung, 46.9 µM; with SW-620 colon, 35.5 µM. The TGI in the test on SK-OV-3 ovarian and in the test on A549 NSCLC was above 100 µM in each case.
Turning to `CN(C)CCNC(=O)c1cccc2c1nc(-c1ccccn1)c1ccccc12`, the TGI with K-562 leukemia came out at 48.8 µM; in the test on OVCAR-8 ovarian, 34.5 µM; in the test with UO-31 renal, 22.7 µM; in the test on SF-268 CNS, 61.6 µM; with NCI-H23 lung it was 30 µM; in the test on SW-620 colon, 27.3 µM. The TGI in the test on SK-OV-3 ovarian stood at 37.3 µM; in the test with A549 NSCLC, 27.9 µM.
`O=C(O/N=C1/CCCC/C1=C\c1ccccc1)c1ccc(Cl)cc1`: the TGI in the test on K-562 leukemia, in the test on OVCAR-8 ovarian, in the test on UO-31 renal, with SF-268 CNS, in the test with NCI-H23 lung and in the test with SW-620 colon was above 100 µM each time. Also, the TGI with SK-OV-3 ovarian and in the test with A549 NSCLC was above 100 µM each time.
Consider `Cc1cccc(N2C(=O)C(=O)C(c3nc4ccccc4s3)C(=O)C2=O)c1C`, for which the TGI in the test on K-562 leukemia, with OVCAR-8 ovarian, in the test on UO-31 renal, in the test on SF-268 CNS, in the test on NCI-H23 lung and with SW-620 colon was above 100 µM in each case. Moreover, the TGI with SK-OV-3 ovarian and in the test with A549 NSCLC was above 100 µM in each case.
With `N#Cc1nc(Nc2ccc([N+](=O)[O-])cc2)sc1N`, the TGI was above 100 µM with K-562 leukemia; above 100 µM in the test on OVCAR-8 ovarian; above 59.7 µM in the test on UO-31 renal; above 100 µM with SF-268 CNS; 20.5 µM in the test with NCI-H23 lung; above 100 µM in the test with SW-620 colon. The figures for the TGI in the test with SK-OV-3 ovarian and in the test on A549 NSCLC were 97.5 µM and above 100 µM, respectively.
